What all share (test): Kinase profiling in a biochemical assay panel (mobility shift assays and ELISA), %-inhibition at 1 μM; selectivity entropy
Assay [1] has as its target T1, panel of more than 300 wild-type and mutant kinases (313 kinase panel) (Homo sapiens, UniProt Q8NE63).
T1 sequence (Q8NE63 1-616): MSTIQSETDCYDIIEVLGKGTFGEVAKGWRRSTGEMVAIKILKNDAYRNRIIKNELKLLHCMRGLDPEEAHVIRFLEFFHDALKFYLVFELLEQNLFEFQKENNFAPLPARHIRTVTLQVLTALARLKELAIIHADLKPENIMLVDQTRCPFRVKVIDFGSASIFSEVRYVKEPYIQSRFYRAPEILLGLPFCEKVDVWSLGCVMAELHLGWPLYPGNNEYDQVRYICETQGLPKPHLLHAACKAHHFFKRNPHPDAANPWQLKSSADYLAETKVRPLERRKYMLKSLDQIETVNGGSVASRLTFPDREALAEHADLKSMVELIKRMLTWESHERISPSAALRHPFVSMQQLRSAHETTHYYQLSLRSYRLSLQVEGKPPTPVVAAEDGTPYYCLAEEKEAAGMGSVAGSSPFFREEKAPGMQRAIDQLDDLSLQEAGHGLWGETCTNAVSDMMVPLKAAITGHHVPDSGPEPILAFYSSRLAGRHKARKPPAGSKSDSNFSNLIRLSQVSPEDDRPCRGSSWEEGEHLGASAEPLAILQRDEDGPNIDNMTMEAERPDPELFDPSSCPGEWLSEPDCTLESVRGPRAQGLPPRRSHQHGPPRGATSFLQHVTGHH

In assay [2] the target is panel of more than 300 wild-type and mutant kinases (313 kinase panel) (Homo sapiens, UniProt P27361). The following applies: kinase Erk1; compound at 1 μM.
Assay [3] concerns the target T2, panel of more than 300 wild-type and mutant kinases (313 kinase panel) (Homo sapiens, UniProt Q9UL54).
T2 sequence (Q9UL54 1-1235): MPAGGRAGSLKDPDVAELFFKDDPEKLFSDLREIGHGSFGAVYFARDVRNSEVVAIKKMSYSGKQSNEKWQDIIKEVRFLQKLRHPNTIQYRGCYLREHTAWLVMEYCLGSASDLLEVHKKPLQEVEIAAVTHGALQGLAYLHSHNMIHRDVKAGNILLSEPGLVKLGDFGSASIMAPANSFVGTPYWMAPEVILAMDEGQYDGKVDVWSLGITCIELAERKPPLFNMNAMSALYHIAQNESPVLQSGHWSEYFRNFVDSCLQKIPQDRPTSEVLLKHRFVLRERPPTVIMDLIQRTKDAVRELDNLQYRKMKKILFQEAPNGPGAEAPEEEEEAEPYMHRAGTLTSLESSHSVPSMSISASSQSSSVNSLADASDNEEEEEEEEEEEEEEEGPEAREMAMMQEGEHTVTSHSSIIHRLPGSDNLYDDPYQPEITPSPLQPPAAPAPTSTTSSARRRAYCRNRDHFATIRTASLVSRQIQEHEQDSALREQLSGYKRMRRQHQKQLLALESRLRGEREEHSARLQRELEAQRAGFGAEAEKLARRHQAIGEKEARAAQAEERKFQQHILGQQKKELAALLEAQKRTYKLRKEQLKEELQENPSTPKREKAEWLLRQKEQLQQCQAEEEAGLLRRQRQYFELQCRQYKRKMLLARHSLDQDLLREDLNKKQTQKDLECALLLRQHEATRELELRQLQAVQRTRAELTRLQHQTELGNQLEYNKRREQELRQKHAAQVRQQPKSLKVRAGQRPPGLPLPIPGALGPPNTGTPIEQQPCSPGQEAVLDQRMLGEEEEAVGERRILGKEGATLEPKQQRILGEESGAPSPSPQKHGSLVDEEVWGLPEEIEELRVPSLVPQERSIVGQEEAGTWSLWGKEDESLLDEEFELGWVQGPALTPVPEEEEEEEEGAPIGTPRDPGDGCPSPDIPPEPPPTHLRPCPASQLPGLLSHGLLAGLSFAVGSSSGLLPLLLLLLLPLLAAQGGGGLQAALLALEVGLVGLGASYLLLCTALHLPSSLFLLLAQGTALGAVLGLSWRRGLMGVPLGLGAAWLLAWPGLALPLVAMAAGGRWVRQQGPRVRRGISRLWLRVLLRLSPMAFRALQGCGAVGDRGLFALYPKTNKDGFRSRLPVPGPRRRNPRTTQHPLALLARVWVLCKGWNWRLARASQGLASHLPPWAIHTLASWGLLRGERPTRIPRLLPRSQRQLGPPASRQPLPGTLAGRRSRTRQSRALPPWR
The following applies: kinase TAOK2; 1 μM.

The target of assay [4] is panel of more than 300 wild-type and mutant kinases (313 kinase panel) (Homo sapiens, UniProt Q9H4B4). The following applies: kinase PLK3; 1 μM.
In assay [5] the target is panel of more than 300 wild-type and mutant kinases (313 kinase panel) (Homo sapiens, UniProt P31749).
The target of assay [6] is T3, panel of more than 300 wild-type and mutant kinases (313 kinase panel) (Homo sapiens, UniProt P41743).
T3 sequence (P41743 1-596): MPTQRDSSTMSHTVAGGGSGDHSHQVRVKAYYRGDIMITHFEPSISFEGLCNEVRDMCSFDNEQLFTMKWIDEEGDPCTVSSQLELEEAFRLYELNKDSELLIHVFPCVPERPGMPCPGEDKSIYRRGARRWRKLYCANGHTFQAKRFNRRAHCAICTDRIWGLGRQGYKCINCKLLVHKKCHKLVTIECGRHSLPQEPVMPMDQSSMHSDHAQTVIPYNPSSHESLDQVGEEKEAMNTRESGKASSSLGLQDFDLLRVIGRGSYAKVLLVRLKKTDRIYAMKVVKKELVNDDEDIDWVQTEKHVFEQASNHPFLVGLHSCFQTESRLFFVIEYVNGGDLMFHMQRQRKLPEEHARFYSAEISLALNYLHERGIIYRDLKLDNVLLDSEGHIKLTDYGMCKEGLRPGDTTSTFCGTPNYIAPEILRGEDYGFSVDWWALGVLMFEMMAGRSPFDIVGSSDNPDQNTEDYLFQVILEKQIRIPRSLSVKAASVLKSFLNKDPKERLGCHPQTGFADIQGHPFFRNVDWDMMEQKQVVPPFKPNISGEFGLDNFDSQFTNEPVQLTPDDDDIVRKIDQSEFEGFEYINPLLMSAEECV
The following applies: kinase PKCι; 1 μM.

Chain of panel of more than 300 wild-type and mutant kinases (313 kinase panel) (Homo sapiens, UniProt P31749) (P31749 whole entry, change not shown): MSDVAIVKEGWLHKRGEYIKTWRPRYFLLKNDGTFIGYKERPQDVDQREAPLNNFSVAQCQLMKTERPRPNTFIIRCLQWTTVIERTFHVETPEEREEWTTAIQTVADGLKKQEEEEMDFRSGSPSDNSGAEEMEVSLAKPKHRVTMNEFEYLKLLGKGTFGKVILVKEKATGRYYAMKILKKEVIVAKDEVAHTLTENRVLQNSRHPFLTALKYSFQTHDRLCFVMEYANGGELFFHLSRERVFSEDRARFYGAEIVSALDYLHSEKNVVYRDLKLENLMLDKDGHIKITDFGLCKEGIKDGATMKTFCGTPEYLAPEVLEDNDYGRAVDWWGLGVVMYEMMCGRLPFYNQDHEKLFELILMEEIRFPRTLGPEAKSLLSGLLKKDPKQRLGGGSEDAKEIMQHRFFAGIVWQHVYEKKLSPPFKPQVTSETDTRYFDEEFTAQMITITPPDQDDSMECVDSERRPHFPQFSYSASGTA
Chain of panel of more than 300 wild-type and mutant kinases (313 kinase panel) (Homo sapiens, UniProt Q9H4B4) (Q9H4B4 whole entry, change not shown): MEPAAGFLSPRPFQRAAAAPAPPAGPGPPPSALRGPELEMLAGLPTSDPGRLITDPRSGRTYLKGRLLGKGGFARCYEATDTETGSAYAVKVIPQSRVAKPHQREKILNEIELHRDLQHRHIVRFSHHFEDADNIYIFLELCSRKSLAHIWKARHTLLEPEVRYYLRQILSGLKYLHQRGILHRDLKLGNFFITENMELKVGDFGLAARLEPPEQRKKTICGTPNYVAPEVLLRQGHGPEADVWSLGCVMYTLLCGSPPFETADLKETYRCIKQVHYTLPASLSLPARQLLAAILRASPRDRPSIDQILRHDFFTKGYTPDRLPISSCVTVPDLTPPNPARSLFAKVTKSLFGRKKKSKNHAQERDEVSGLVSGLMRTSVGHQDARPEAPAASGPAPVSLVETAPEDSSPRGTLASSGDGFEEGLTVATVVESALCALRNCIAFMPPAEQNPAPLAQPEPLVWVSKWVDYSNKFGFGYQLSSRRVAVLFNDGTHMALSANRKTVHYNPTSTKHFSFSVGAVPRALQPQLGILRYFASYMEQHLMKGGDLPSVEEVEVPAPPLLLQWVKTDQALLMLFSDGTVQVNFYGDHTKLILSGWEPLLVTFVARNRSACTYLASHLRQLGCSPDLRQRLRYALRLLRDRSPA
Chain of panel of more than 300 wild-type and mutant kinases (313 kinase panel) (Homo sapiens, UniProt P27361) (P27361 whole entry, change not shown): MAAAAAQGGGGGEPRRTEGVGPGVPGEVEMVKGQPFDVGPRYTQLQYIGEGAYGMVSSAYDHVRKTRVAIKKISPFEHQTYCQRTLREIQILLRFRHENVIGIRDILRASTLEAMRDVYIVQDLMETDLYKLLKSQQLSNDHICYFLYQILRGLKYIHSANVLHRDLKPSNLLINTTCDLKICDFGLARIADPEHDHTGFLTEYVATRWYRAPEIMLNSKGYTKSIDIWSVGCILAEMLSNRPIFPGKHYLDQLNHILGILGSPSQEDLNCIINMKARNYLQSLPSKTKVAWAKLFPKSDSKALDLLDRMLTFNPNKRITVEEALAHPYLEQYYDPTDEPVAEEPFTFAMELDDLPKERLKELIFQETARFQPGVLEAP

In the case of `N#CC[C@H](C1CCCC1)n1cc(-c2ncnc3[nH]ccc23)cn1` [ruxolitinib], the “%-inhibition of HIPK4” value in assay [1] (1 µM) is 3%. In addition, in assay [2], the “%-inhibition of Erk1” value is recorded as -2.29%. Further, the “%-inhibition of TAOK2” value in assay [3] was determined as 35%. Besides, the “%-inhibition of PLK3” value in assay [4] is given as 13%. Also, the “%-inhibition, AKT1” value in assay [5] (kinase AKT1, 1 μM compound) is -5%. Also, the “%-inhibition of PKCι” value in assay [6] turned out to be 1.52%.

As to `CC(=O)Nc1cccc(-n2c(=O)n(C3CC3)c(=O)c3c(Nc4ccc(I)cc4F)n(C)c(=O)c(C)c32)c1` [trametinib], in assay [1] (kinase HIPK4, compound at 1 μM), the “%-inhibition of HIPK4” value was 2.78%. Also, the “%-inhibition of Erk1” value in assay [2] was -1.14%. In assay [3], the “%-inhibition of TAOK2” value is -2.59%. Moreover, in assay [4], the “%-inhibition of PLK3” value is reported as -6.59%. Besides, in assay [5] (kinase AKT1, 1 μM compound), the “%-inhibition, AKT1” value is given as -3%. For the same compound, in assay [6], the “%-inhibition of PKCι” value is 9%.

As for `COc1cc2c(Nc3ccc(Br)cc3F)ncnc2cc1OCC1CCN(C)CC1` [vandetanib], in assay [1] (kinase HIPK4, compound at 1 μM), the “%-inhibition of HIPK4” value is reported as 20%. The “%-inhibition of Erk1” value in assay [2] was -1.55%. Also, the “%-inhibition of TAOK2” value in assay [3] is given as -3.51%. Moreover, the “%-inhibition of PLK3” value in assay [4] is -6%. In assay [5] (1 µM), the “%-inhibition, AKT1” value is -4.52%. The “%-inhibition of PKCι” value in assay [6] was found to be 6%.

Take `CCCS(=O)(=O)Nc1ccc(F)c(C(=O)c2c[nH]c3ncc(-c4ccc(Cl)cc4)cc23)c1F` [vemurafenib]: in assay [1] (kinase HIPK4, compound at 1 μM), the “%-inhibition of HIPK4” value is listed as -0.437%. In addition, the “%-inhibition of Erk1” value in assay [2] was determined as 0.0533%. Also, the “%-inhibition of TAOK2” value in assay [3] was 5.35%. Further, the “%-inhibition of PLK3” value in assay [4] is -2.83%. The “%-inhibition, AKT1” value in assay [5] (kinase AKT1, 1 μM compound) is -4.52%. In assay [6], the “%-inhibition of PKCι” value is -16%.

Source of the values: PMC3961306, “Comparison of the Cancer Gene Targeting and Biochemical Selectivities of All Targeted Kinase Inhibitors Approved for Clinical Use” (PLoS ONE, 2014).
